Results reported in patent US6043248A, “Alpha-substituted pyrimidine-thioalkyl and alkylether compounds as inhibitors of viral reverse transcriptase” (priority 1997, dated 2000).

target: T1, P236L viral reverse transcriptase (Human immunodeficiency virus type 1 group M subtype B, UniProt P04585, P823L); experiment: inhibition of viral reverse transcriptase (P236L), cell free assay; type: biochemical; conditions: 30 minutes at 37° C., read-out: IC50 (Table I, P236L)
T1 construct: P236L viral reverse transcriptase is obtained by PNAS 90: 4713-4717 (1993); made in house
Description: The utility of the pyrimidine-thioalkyl and alkylether anti-AIDS compounds of Formula IA of this invention can be determined by their ability to inhibit viral reverse transcriptase, an enzyme essential for human immunodeficiency virus replication. This enzyme has characteristics which differentiate it from other known cellular polymerases and it is a unique enzyme which is not found in uninfected cells. Viral reverse transcriptase (Wild Type) is found in extracts from bacterial clones prepared according to the procedure described in AIDS Virus Reverse Transcriptase defined by high level expression in Escherichia coli, EMBO J. 6:3133-3137 (1987). P236L viral reverse transcriptase is obtained by PNAS 90: 4713-4717 (1993). Inhibition of this enzyme is determined in a cell free assay which measures the level of radioactive precursors incorporated into DNA. Extracts prepared according to the procedure of Science, 1125-1129 (1981) are incubated in a mixture of inhibitor, 20 mM dithiothreitol, 60 mM sodium chloride, 0.05% NP-40, 10 mM magnesium chloride, 50 mM Tris pH 8.3, 10 μM [^35 S]-labeled deoxynuleoside-5'-triphosphate, 10 μg/ml RNA template (poly rC or poly rG) and 5 μg/ml DNA primer (oligo dG or oligo dT) for 30 minutes at 37° C. Incorporation of radio-labeled percursor is determined by spotting aliquots of the reaction mixture on DE81 paper, washing the papers to remove unincorporated percursor, drying and determining counts. The results (IC50 means the concentration, in μM of drug, required to inhibit the reverse transcriptase activity (P236L and Wild Type) to the extent of 50%) of various assay(s) are combined and reported as % inhibition and/or IC50 (calculated) in Table I (P236L) and Table II (Wild Type).

SMILES | IC50
Nc1cc(Cl)nc(SCc2cccc(Cl)n2)n1 [Example 112, 4-amino-6-chloro-2-[2-(6-chloro)pyridylmethylthio]-pyrimidine] | 70 nM
Nc1cc(Cl)nc(SCc2cccc(F)c2)n1 [Example 41, 4-amino-6-chloro-2-(3-fluorophenylmethylthio)-pyrimidine] | 200 nM
Nc1cc(Cl)nc(SCC2=Cc3ccccc3CC2)n1 [Example 171, 4-Amino-6-chloro-2-[[(3,4-dihydro-1-naphthalen-2-yl)methyl]thio]-pyrimidine] | 1000 nM
Nc1cc(Cl)nc(SCc2ccnc3ccccc23)n1 [Example 181, 4-Amino-6-chloro-2-[(quinolin-4-ylmethyl)thio]pyrimidine] | 1000 nM
CCOc1ccnc(CSc2nc(N)cc(Cl)n2)c1 [Example 115, 4-amino-6-chloro-2-[2-(4-ethoxy)pyridylmethylthio]-pyrimidine] | 50 nM
Nc1cc(Cl)nc([S+]([O-])Cc2ccc3ccccc3c2)n1 (stereo not shown) [Example 68, 4-amino-6-chloro-2-(2-naphthylmethylsulfinyl)-pyrimidine] | 5000 nM
Nc1cc(Cl)nc(SC/C=C/c2ccccc2)n1 [Example 64, 4-amino-6-chloro-2-(E-styrylmethylthio)-pyrimidine] | 66 nM
Nc1cc(Cl)nc(SCC2=CCCc3ccccc32)n1 [Example 187, 4-Amino-6-chloro-2-[[(3,4-dihydro-1-naphthalenyl)methyl]thio]pyrimidine] | 600 nM
Nc1cc(Cl)nc(SCc2cc(Cl)ccn2)n1 [Example 111, 4-amino-6-chloro-2-[2-(4-chloro)-5 pyridylmethylthio]-pyrimidine] | 30 nM
Nc1cc(Cl)nc(SCc2cc3ccccc3s2)n1 [Example 158, 4-Amino-6-chloro-2-[(benzothiophen-2-ylmethyl)thio]pyrimidine] | 1000 nM
Nc1cc(Cl)nc(SCc2cc(Cl)cc(Cl)c2)n1 [Example 50, 4-amino-6-chloro-2-(3,5-dichlorophenylmethylthio)-pyrimidine] | 330 nM
Cn1ccnc1CSc1nc(N)cc(Cl)n1 [Example 176, 4-Amino-6-chloro-2-[(1-methylimidazol-2-ylmethyl)thio]pyrimidine] | 25000 nM
CC(C)c1ccnc(CSc2nc(N)cc(Cl)n2)c1 [Example 132, 4-amino-6-chloro-2-[2-(4-isopropyl)pyridylmethylthio]-pyrimidine] | 20 nM
Nc1cc(Cl)nc(SCc2ccc3ccccc3c2)n1 [Example 59, 4-amino-6-chloro-2-(2-naphthylmethylthio)-pyrimidine] | 36 nM
NNc1cc(Cl)nc(SCc2ccccc2)n1 [Example 88, 4-hydrazino-6-chloro-2-(benzylthio)-pyrimidine] | 5000 nM
Nc1cc(Cl)nc(SCc2ccc3cccnc3c2)n1 [Example 184, 4-Amino-6-chloro-2-[(quinolin-7-ylmethyl)thio]pyrimidine] | 3000 nM
Nc1cc(Cl)nc(SCc2c(Cl)cccc2Cl)n1 [Example 167, 4-amino-6-chloro-2-(2,6-dichlorophenyl)methylthio-pyrimidine] | 5000 nM
Nc1cc(Cl)nc(SCc2cc(Br)cc(Br)c2)n1 [Example 52, 4-amino-6-chloro-2-(3,5-dibromophenylmethylthio)-pyrimidine] | 200 nM
Clc1cc(N2CCOCC2)nc(SCc2ccccc2)n1 [Example 86, 4-morpholino-6-chloro-2-(benzylthio)-pyrimidine] | 40000 nM
Nc1cc(Cl)nc(SCc2cccc(I)c2)n1 [Example 44, 4-amino-6-chloro-2-(3-iodophenylmethylthio)-pyrimidine] | 600 nM
Cc1ccc(CSc2nc(N)cc(Cl)n2)cc1 [Example 37, 4-amino-6-chloro-2-(4-methylphenylmethylthio)-pyrimidine] | 330 nM
Nc1cc(Cl)nc(SCC2=CCc3ccccc32)n1 [Example 155, 4-amino-6-chloro-2-[(1H-inden-3-ylmethyl)thio]pyrimidine] | 5000 nM
Nc1nc(SCc2cc(Cl)ccn2)nc(Cl)c1F [Example 149, 4-amino-6-chloro-5-fluoro-2-[2-(4-chloro)pyridylmethylthio]pyrimidine] | 50 nM

SMILES | IC50
Cc1cnc(CSc2nc(N)cc(Cl)n2)cc1C [Example 140, 4-amino-6-chloro-2-[2-(4,5-dimethyl)pyridylmethylthio]-pyrimidine] | 20 nM
Nc1cc(Cl)nc(SCc2ccc(F)c(F)c2)n1 [Example 48, 4-amino-6-chloro-2-(3,4-difluorophenylmethylthio)-pyrimidine] | 500 nM
Nc1cc(Cl)nc(SCc2cc3ccccc3o2)n1 [Example 153, 4-Amino-6-chloro-2-[(benzofuran-2-ylmethyl)thio]pyrimidine] | 10000 nM
Nc1cc(Cl)nc(SCc2ccoc2)n1 [Example 148, 4-Amino-6-chloro-2-[(furan-3-ylmethyl)thio]pyrimidine] | 10000 nM
Nc1cc(Cl)nc(SCc2cccc3ccccc23)n1 [Example 58, 4-amino-6-chloro-2-(1-naphthylmethylthio)-pyrimidine] | 30 nM
Nc1nc(SCc2cc(Cl)ccn2)nc(Cl)c1F [Example 192] | 20 nM
Cc1cc(CSc2nc(N)cc(Cl)n2)ncn1 [Example 130, 4-amino-6-chloro-2-[4-(6-methyl)pyrimidinylmethylthio]-pyrimidine] | 800 nM
Cc1cc(C)nc(CSc2nc(N)cc(Cl)n2)c1 [Example 121, 4-amino-6-chloro-2-[2-(4,6-dimethyl)pyridylmethylthio]-pyrimidine] | 10 nM
Nc1cc(Cl)nc([S+]([O-])Cc2cccc(Br)c2)n1 (stereo not shown) [Example 67, 4-amino-6-chloro-2-(3-bromophenylmethylsulfinyl)pyrimidine] | 25000 nM
CCc1ccnc(CSc2nc(N)cc(Cl)n2)c1 [Example 122, 4-amino-6-chloro-2-[2-(4-ethyl)pyridylmethylthio]-pyrimidine] | 10 nM
Nc1cc(Cl)nc(SCc2cc(Br)ccn2)n1 [Example 119, 4-amino-6-chloro-2-[2-(4-bromo)pyridylmethylthio]-pyrimidine] | 40 nM
Nc1nc(SCc2ccccn2)nc(Cl)c1F [Example 92, 4-amino-5-fluoro-6-chloro-2-(2-pyridylmethylthio)-pyrimidine] | 1000 nM
Cc1cc(C)nc(CSc2nc(N)cc(Cl)n2)n1 [Example 127, 4-amino-6-chloro-2-[2-(4,6-dimethyl)pyrimidinylmethylthio]-pyrimidine] | 1000 nM
CC(C)c1ccnc(CSc2nc(N)c(Br)c(Cl)n2)c1 [Example 166, 4-amino-5-bromo-6-chloro-2-[2-(4-isopropyl)pyridylmethylthio]-pyrimidine] | 20 nM
COc1c(N)nc(SCc2ccc3ccccc3c2)nc1Cl [Example 89, 4-amino-5-methoxy-6-chloro-2-(2-naphthylmethylthio)-pyrimidine] | 5000 nM
Cc1cccc(CSc2nc(N)cc(Cl)n2)c1 [Example 36, 4-amino-6-chloro-2-(3-methylphenylmethylthio)-pyrimidine] | 50 nM
CCC(CC)c1ccnc(CSc2nc(N)cc(Cl)n2)c1 [Example 151, 4-amino-6-chloro-2-[2-(4-(3-pentyl))pyridylmethylthio]-pyrimidine] | 60 nM
CC(C)(O)c1ccnc(CSc2nc(N)cc(Cl)n2)c1 [Example 135] | 100 nM
Nc1cc(Cl)nc(SCc2cc3c(cc2Cl)OCO3)n1 [Example 62, 4-amino-6-chloro-2-(6-chloro-5-piperonylmethylthio)-pyrimidine] | 20 nM
Cc1cnc(CSc2nc(N)cc(Cl)n2)cn1 [Example 175, 4-Amino-6-chloro-2-[(5-methylpyrazin-2-ylmethyl)thio]pyrimidine] | 8000 nM
CCCc1ccnc(CSc2nc(N)cc(Cl)n2)c1 [Example 131, 4-amino-6-chloro-2-[2-(4-propyl)pyridylmethylthio]-pyrimidine] | 50 nM
C=C(C)[C@@H]1CC=C(CSc2nc(N)cc(Cl)n2)CC1 [Example 157, 4-Amino-6-chloro-2-[((S)-(--)perillyl)thio]pyrimidine] | 10000 nM
CCC(C)c1ccnc(CSc2nc(N)cc(Cl)n2)c1 (stereo not shown) [Example 145, 4-amino-6-chloro-2-[2-(4-(2-butyl))pyridylmethylthio]-pyrimidine] | 10 nM

same assay, conditions: IC50 (Table I, P236L), 30 minutes at 37° C.

SMILES | IC50
Nc1cc(Cl)nc(SCc2cccc3cccnc23)n1 [Example 180, 4-Amino-6-chloro-2-[(quinolin-8-ylmethyl)thio]pyrimidine] | 50 nM
COC(=O)c1ccc(CSc2nc(N)cc(Cl)n2)nc1 [Example 188, 4-amino-6-chloro-2[2-(5-carbomethyoxy)pyridylmethylthio]pyrimidine] | 50000 nM
CNc1cc(C#N)nc(SCc2ccc3ccccc3c2)n1 [Example 288, 6-methylamino-2-(2-naphthylmethyl)thio-4-pyrimidine carbonitrile] | 50000 nM
